By IC50 is commonly meant the concentration that gives 50% inhibition.

Like-named read-outs stand apart in the source and are kept apart here.

IC50 data for 16 molecules are collected here from patent publication US11560391B2, “Sulfonylurea compounds as inhibitors of interleukin-1 activity” (Genentech, Inc., priority 2018, dated 2023).

The test system of one experiment is PBMCs. Put plainly: CTG (CellTiter-Glo) viability assay of compound-treated LPS and nigericin stimulated PBMCs. Particulars: Homo sapiens, PBMC; read-out: PMBC CTG IC50. The class given is cell-based, human. On the procedure: Human peripheral blood mononuclear cells (PBMCs), consisting of lymphocytes (T, B and NK cells), monocytes and dendritic cells, are freshly isolated from human peripheral blood from healthy donors. Cells are obtained through an IRB approved donor program by iXCells Biotechnologies where all the donors are tested for bacterial and viral infections. Cells are purified from peripheral blood using ficoll gradient centrifugation.
Fresh or cryopreserved PMBCs are seeded in V-bottom 96-well plate at 0.5-1×10^5 cells per well and incubated overnight at 37° C. with 5% CO2 in RPMI 1640 medium with GlutaMAX supplement, 4.5 g/L D-glucose, 10% Fetal Bovine Serum (FBS), […] Sodium Pyruvate, 1% Penicillin/Streptomycin, 10 mM HEPES and 0.05 mM of […]. Freshly isolated or cryopreserved KCs cells are seeded in flat-bottom 96-well plates at 0.6-1.5×10^5 cells/well and incubated overnight at 37° C., 5% CO2 in RPMI 1640 Medium with GlutaMAX supplement, FBS, 1% Penicillin/Streptomycin and 10 mM HEPES. The following day, the cells are primed with 100 ng/mL of lipopolysaccharides (LPS; Sigma Aldrich) in FBS-free RPMI 1640 for 3 h. After the priming step, the media is removed and PBMCs are pre-incubated with serial concentrations of test compounds (0.00017-10 uM) or vehicle (DMSO) for 30 min in FBS-free media prior to addition of the NLRP3 activator. Cells are then stimulated with 10 μM Nigericin (Sigma Aldrich; InvivoGen) for 1.5 h. Plates were centrifuged at 1,500 rpm for 3 minutes to pellet cells and supernatant was transferred into new plates for subsequent experiments.
Viability of compound treated cells is measured using CellTiter-Glo® assay (Promega, Madison, Wis.) that measures the ATP content of cells which is proportional to the number of live cells within a well. This is a counter-screen to establish that the reduction of IL-1β levels in LPS and nigericin stimulated and compound treated cells is not due to cytotoxicity, but rather through the inhibition of the inflammasome pathway. Compounds inhibiting NRLP3 inflammasome activation ultimately increase the viability of LPS and nigericin stimulated cells by blocking NLRP3 mediated pyroptosis that would otherwise lead to cell lysis.
On the technique in general: In ATP-based viability assays light output follows the ATP content of the culture.

The target in the next experiment is T1, NLRP3 inflammasome (Homo sapiens, UniProt Q96P20).
T1 construct: freshly isolated from human peripheral blood from healthy donors; StemCells Technologies; host or cells: primary human PBMCs
T1 sequence (Q96P20 whole entry): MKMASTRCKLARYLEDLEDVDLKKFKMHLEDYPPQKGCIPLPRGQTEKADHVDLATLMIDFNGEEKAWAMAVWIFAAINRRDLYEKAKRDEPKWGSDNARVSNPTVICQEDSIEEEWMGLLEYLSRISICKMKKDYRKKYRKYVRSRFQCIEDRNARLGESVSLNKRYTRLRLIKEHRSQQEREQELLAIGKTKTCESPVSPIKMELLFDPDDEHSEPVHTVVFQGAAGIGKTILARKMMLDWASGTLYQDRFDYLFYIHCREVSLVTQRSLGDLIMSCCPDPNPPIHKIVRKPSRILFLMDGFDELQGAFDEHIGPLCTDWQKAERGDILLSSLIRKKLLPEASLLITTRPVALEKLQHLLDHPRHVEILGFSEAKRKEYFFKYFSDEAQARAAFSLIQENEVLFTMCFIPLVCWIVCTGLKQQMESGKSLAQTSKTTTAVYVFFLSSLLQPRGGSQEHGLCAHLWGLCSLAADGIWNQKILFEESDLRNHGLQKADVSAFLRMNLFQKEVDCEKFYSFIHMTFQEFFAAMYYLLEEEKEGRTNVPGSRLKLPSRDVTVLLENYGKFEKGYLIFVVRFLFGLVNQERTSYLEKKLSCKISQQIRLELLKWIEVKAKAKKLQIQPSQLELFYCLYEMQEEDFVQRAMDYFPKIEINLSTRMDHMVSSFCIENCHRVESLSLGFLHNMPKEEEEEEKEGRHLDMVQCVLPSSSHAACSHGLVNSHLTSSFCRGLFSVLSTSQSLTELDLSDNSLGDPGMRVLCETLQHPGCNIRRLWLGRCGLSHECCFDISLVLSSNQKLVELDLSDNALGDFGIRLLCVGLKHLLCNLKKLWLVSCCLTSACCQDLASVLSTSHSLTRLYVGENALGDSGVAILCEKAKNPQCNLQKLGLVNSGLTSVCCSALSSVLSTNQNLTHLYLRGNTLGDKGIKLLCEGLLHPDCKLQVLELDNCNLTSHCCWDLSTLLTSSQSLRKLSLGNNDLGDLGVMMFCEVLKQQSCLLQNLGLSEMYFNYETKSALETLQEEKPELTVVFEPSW
Description: NLRP3 inflammasome activation assay in LPS-primed, nigericin-stimulated PBMCs, IL-1β release. Format: cell-based. Particulars: PBMC, LPS priming, 10 μM nigericin. In a few lines: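 Fresh or cryopreserved human PBMCs primed with 100 ng/mL LPS for 3 h, pre-incubated 30 min with compound (0.00017-10 uM, or 2-fold 20-point series from 40 μM), then stimulated with 10 μM nigericin for 1.5 h at 37 °C. Supernatant IL-1β measured by ELISA or by HTRF (665/620 ratio).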

The subject of a further experiment is THP-1 ASC-GFP cells. Description: THP-1 ASC-GFP speck assay (NLRP3 inflammasome activation, nigericin). Particulars: THP1-ASC-GFP; PMA-differentiated, LPS primed, 10 μM nigericin. Format: cell-based. As to the method:
THP-1 ASC-GFP cell line was purchased from Invivogen, San Diego, for infammasome activation assay. THP-1 ASC-GFP cells stably express a 37.6 kDa ASC::GFP fusion protein that enables monitoring of spec formation by microscopy after activation of NLRP3 dependent inflammasome pathway. Cells were maintained at a density of 600,000 cells/mL in growth media consisting of RPMI 1640, 2 mM L-glutamine, 25 mM HEPES and 10% heat inactivated fetal bovine serum at 37° C. and 5% CO2. Cells were passaged every 3-4 days and used for assays for up to 20 passages.
THP-1 ASC-GFP cells were collected by centrifuging cells at 800 RPM for 5 minutes. Cell culture supernatant was removed and cells were re-suspended in fresh media at density of 1×10^6 cells/mL in assay media consisting of RPMI 1640, 2 mM L-glutamine, 25 mM HEPES and 10% heat inactivated fetal bovine serum. Phorbol 12-myristate 13-acetate (PMA) (Invivogen,tlrl-pma) was added to the cell suspension at a final concentration of 500 ng/ml and mixed thoroughly. 40,000 cells were added per well of a 384 well plate and differentiated into macrophages overnight at 37° C. and 5% CO2. Cells were primed with 1 μg/mL of lipopolysaccharide (Invivogen Ultrapure lipopolysaccharide from E. coli, tlrl-3pelps) in assay media for 3 hours at 37° C. and 5% CO2. After priming, media was removed and THP-1 ASC-GFP cells were preincubated with serially diluted test compounds with starting concentration of 40 μM followed by 2-fold dilution for a 20-point curve or vehicle (DMSO) for 30 min in assay media at 37° C. and 5% CO2. Cells were then stimulated with 10 μM nigericin (Invivogen, tlrl-nig-5) for 90 min at 37° C. and 5% CO2 to activate NLRP3 dependent inflammasome pathway and spec formation. After stimulation, cells were fixed with 4.8% paraformaldehyde (Electron Microscopy Sciences #15710-S) and incubated at room temperature for 15 min. Cells were then washed 3-times with 100 μL of phosphate buffered saline and permeabilized in the presence of premeablization/block buffer for 20 min at room temperature. Cells were then washed 3-times with 100 μL phosphate buffered saline and incubated for 1 hr at room temperature in the presence of hoechst. After staining with Hoechst, cells were washed 3-times with 100 μL phosphate buffered saline and imaged for ASC spec formation.
THP-1 ASC-GFP cells were imaged in 488 and Hoechst channels. Hoechst channel was used for cell count and 488 channel was used to identify number of GFP ASC specks in imaged fields. Percentage of cells with a spec was calculated by dividing the number of GFP positive spots by total number of cells.

In the case of `CC(C)c1cc(C#N)nc(C(C)C)c1NC(=O)NS(=O)(=O)c1cnn2c1OCCC2` [Example 49, N-((6-cyano-2,4-diisopropylpyridin-3-yl)carbamoyl)-6,7-dihydro-5H-pyrazolo[5,1-b][1,3]oxazine-3-sulfonamide], the IC50 is 560 nM with PBMCs, 1.25 µM on NLRP3 inflammasome (read-out: PMBC IL-1β IC50) and 2500 nM with THP-1 ASC-GFP cells.

As to `CCn1nc(C(C)C)c(NC(=O)NS(=O)(=O)c2cnn3c2OC[C@@H](OC)C3)c1C(C)C` [Example 39a, (S)—N-((1-ethyl-3,5-diisopropyl-1H-pyrazol-4-yl)carbamoyl)-6-methoxy-6,7-dihydro-5H-pyrazolo[5,1-b][1,3]oxazine-3-sulfonamide], the results for the IC50 with PBMCs, at NLRP3 inflammasome (read-out: PMBC IL-1β IC50) and in the experiment on THP-1 ASC-GFP cells were 970 nM, 1.24 µM and 400 nM, respectively.

For the molecule `COc1cc(C(C)C)c(NC(=O)NS(=O)(=O)c2cnn3c2OCCC3)c(C(C)C)n1` [Example 30, N-((2,4-diisopropyl-6-methoxypyridin-3-yl)carbamoyl)-6,7-dihydro-5H-pyrazolo[5,1-b][1,3]oxazine-3-sulfonamide], the IC50 in the experiment on PBMCs worked out at 730 nM; on NLRP3 inflammasome (read-out: PMBC IL-1β IC50), 0.85 µM; with THP-1 ASC-GFP cells, 1800 nM.

With `CCn1nc(C(C)C)c(NC(=O)NS(=O)(=O)c2cnn3c2OCCC3)c1C(C)C` [Example 34, N-((1-ethyl-3,5-diisopropyl-1H-pyrazol-4-yl)carbamoyl)-6,7-dihydro-5H-pyrazolo[5,1-b][1,3]oxazine-3-sulfonamide], the IC50 in the experiment on PBMCs was found to be 1980 nM; at NLRP3 inflammasome (read-out: PMBC IL-1β IC50) it was 3.19 µM; in the experiment on THP-1 ASC-GFP cells, 3700 nM.

With `CCOc1cc(C(C)C)c(NC(=O)NS(=O)(=O)c2cnn3c2OCCC3)c(C(C)C)n1` [Example 50, N-((6-ethoxy-2,4-diisopropylpyridin-3-yl)carbamoyl)-6,7-dihydro-5H-pyrazolo[5,1-b][1,3]oxazine-3-sulfonamide], the figures for the IC50 in the experiment with PBMCs, at NLRP3 inflammasome (read-out: PMBC IL-1β IC50) and in the experiment on THP-1 ASC-GFP cells were 1180 nM, 2.81 µM and 4700 nM, respectively.

`Cc1nc(NC(=O)NS(=O)(=O)c2cnn3c2OCCC3)nc2c1CCCC2` [Example 24, N-((4-methyl-5,6,7,8-tetrahydroquinazolin-2-yl)carbamoyl)-6,7-dihydro-5H-pyrazolo[5,1-b][1,3]oxazine-3-sulfonamide]: the figures for the IC50 at NLRP3 inflammasome (read-out: PMBC IL-1β IC50) and with THP-1 ASC-GFP cells were more than 10 µM and more than 20000 nM, respectively.

On to `COc1cc(C(C)C)c(NC(=O)NS(=O)(=O)c2cnn3c2OCC(CNC(C)=O)C3)c(C(C)C)n1` (racemic) [Example 40, N-((3-(N-((2,4-diisopropyl-6-methoxypyridin-3-yl)carbamoyl)sulfamoyl)-6,7-dihydro-5H-pyrazolo[5,1-b][1,3]oxazin-6-yl)methyl)acetamide], for which the results for the IC50 with PBMCs, on NLRP3 inflammasome (read-out: PMBC IL-1β IC50) and in the experiment with THP-1 ASC-GFP cells were 1250 nM, 1.5 µM and 720 nM, respectively.

For the molecule `CC(C)c1nn(C(C)C)c(C(C)C)c1NC(=O)NS(=O)(=O)c1cnn2c1OCCC2` [Example 33, N-((1,3,5-triisopropyl-1H-pyrazol-4-yl)carbamoyl)-6,7-dihydro-5H-pyrazolo[5,1-b][1,3]oxazine-3-sulfonamide], the IC50 in the experiment on PBMCs was found to be 4510 nM; on NLRP3 inflammasome (read-out: PMBC IL-1β IC50), 4.96 µM; with THP-1 ASC-GFP cells it was 4000 nM.

Take `CC(C)c1nn(CC2CC2)c(C(C)C)c1NC(=O)NS(=O)(=O)c1cnn2c1OCCC2` [Example 35, N-((1-(cyclopropylmethyl)-3,5-diisopropyl-1H-pyrazol-4-yl)carbamoyl)-6,7-dihydro-5H-pyrazolo[5,1-b][1,3]oxazine-3-sulfonamide]: the figures for the IC50 with PBMCs, at NLRP3 inflammasome (read-out: PMBC IL-1β IC50) and in the experiment on THP-1 ASC-GFP cells were 120 nM, 0.95 µM and 1400 nM, respectively.

For `COc1cc(C)nc(NC(=O)NS(=O)(=O)c2cnn3c2OCCC3)n1` [Example 19, N-((4-methoxy-6-methylpyrimidin-2-yl)carbamoyl)-6,7-dihydro-5H-pyrazolo[5,1-b][1,3]oxazine-3-sulfonamide], the IC50 is more than 10 µM at NLRP3 inflammasome (PMBC IL-1β IC50 (μM)) and more than 20000 nM in the experiment with THP-1 ASC-GFP cells.

`CC(C)c1cc(Cl)nc(NC(=O)NS(=O)(=O)c2cnn3c2OCCC3)n1` [Example 16, N-((4-chloro-6-isopropylpyrimidin-2-yl)carbamoyl)-6,7-dihydro-5H-pyrazolo[5,1-b][1,3]oxazine-3-sulfonamide]: the results for the IC50 at NLRP3 inflammasome (read-out: PMBC IL-1β IC50) and in the experiment with THP-1 ASC-GFP cells were more than 10 µM and more than 20000 nM, respectively.

Turning to `CO[C@@H]1COc2c(S(=O)(=O)NC(=O)Nc3c(C(C)C)nn(C)c3C(C)C)cnn2C1` [Example 38a, (S)—N-((3,5-diisopropyl-1-methyl-1H-pyrazol-4-yl)carbamoyl)-6-methoxy-6,7-dihydro-5H-pyrazolo[5,1-b][1,3]oxazine-3-sulfonamide], the figures for the IC50 in the experiment with PBMCs, at NLRP3 inflammasome (read-out: PMBC IL-1β IC50) and with THP-1 ASC-GFP cells were 680 nM, 1.14 µM and 2500 nM, respectively.

As for `CN[C@@H]1COc2c(S(=O)(=O)NC(=O)Nc3c(C(C)C)cc(OC)nc3C(C)C)cnn2C1` [Example 41a, (S)—N-((2,4-diisopropyl-6-methoxypyridin-3-yl)carbamoyl)-6-(methylamino)-6,7-dihydro-5H-pyrazolo[5,1-b][1,3]oxazine-3-sulfonamide], the IC50 in the experiment with PBMCs came to 13 nM; at NLRP3 inflammasome (read-out: PMBC IL-1β IC50), 0.37 µM; in the experiment on THP-1 ASC-GFP cells, 680 nM.

For the molecule `Cc1onc(-c2ccccc2)c1NC(=O)NS(=O)(=O)c1cnn2c1OCCC2` [Example 8, N-((5-methyl-3-phenylisoxazol-4-yl)carbamoyl)-6,7-dihydro-5H-pyrazolo[5,1-b][1,3]oxazine-3-sulfonamide], the values for the concentration for half-maximal inhibition (IC50) in the experiment on PBMCs, at NLRP3 inflammasome (read-out: PMBC IL-1β IC50) and with THP-1 ASC-GFP cells were more than 10000 nM, more than 10 µM and more than 20000 nM, respectively.

Turning to `COc1cc(C(C)C)c(NC(=O)NS(=O)(=O)c2cnn3c2OC[C@@H](N2CC(OC)C2)C3)c(C(C)C)n1` [Example 42a, Sodium (S)—N-((2,4-diisopropyl-6-methoxypyridin-3-yl)carbamoyl)-6-(3-methoxyazetidin-1-yl)-6,7-dihydro-5H-pyrazolo[5,1-b][1,3]oxazine-3-sulfonamide], the results for the IC50 in the experiment on PBMCs, at NLRP3 inflammasome (read-out: PMBC IL-1β IC50) and in the experiment on THP-1 ASC-GFP cells were 240 nM, 0.12 µM and 1100 nM, respectively.

Turning to `Cc1cc(C2CC2)nc(NC(=O)NS(=O)(=O)c2cnn3c2OCCC3)n1` [Example 21, N-((4-cyclopropyl-6-methylpyrimidin-2-yl)carbamoyl)-6,7-dihydro-5H-pyrazolo[5,1-b][1,3]oxazine-3-sulfonamide], the IC50 at NLRP3 inflammasome (read-out: PMBC IL-1β IC50) was more than 10 µM; in the experiment with THP-1 ASC-GFP cells, 12000 nM.
